Source: patent US6495603B1, “Anti-inflammatory eye drop” (Wakamoto Pharmaceutical Co., Ltd., priority 1998, dated 2002)

Assays:
[1] = system: SV40 immortalized human corneal epithelial cell strains; assay: Cell toxicity, viable cell number by β-hexosaminidase activity, corneal epithelial cells; assay type: cell-based; settings: concentration for survival rate of 50%
Protocol: (§1) There were used SV40 immortalized human corneal epithelial cell strains (Araki-Sasaki et al., IOVS, 1995, 36:614-621) as the corneal cells and Chang human conjunctival cell strains (ATCC CCL-20.2) as the conjunctival cells.
(§2) These cells were cultured in 96-well plate to a confluent of 30 to 50% and then each test substance stepwise diluted with the culture medium was added to the foregoing culture medium to thus carry out cultivation at 37° C. After completion of the cultivation, the plate was washed with PBS(−) and the number of residual cells was determined in terms of the β-hexosaminidase activity.
(§3) A group treated with only the solvent, which was used for dissolving the test substance was defined to be a negative control, the viable cell number observed for the control was assumed to be 100%, a dose-correlation curve was prepared on the basis of the viable cell number observed at each concentration of test substance and the concentration of each test substance required for achieving the survival rate of 50% (EC50) was determined from the curve and it was defined to be the toxicity value thereof.

[2] = system: Chang human conjunctival cell strains (ATCC CCL-20.2); assay: Cell toxicity, viable cell number by β-hexosaminidase activity, conjunctival cells; assay type: cell-based; settings: concentration for survival rate of 50%
Protocol: as §1, §2, §3

[3] = system: Japanese white rabbits; assay: Inflammation in anterior of white rabbit after anterior chamber puncture (secondary aqueous humor PGE2 and protein); assay type: in vivo; settings: for Inhibition Rate (PGE2 Content) / Inhibition Rate (Protein Content): anterior chamber puncture, vs control; for PGE2 Content / Protein Content: secondary aqueous humor after anterior chamber puncture
Protocol: In this Test Example, there were used Japanese white rabbits (available from Japan Medical Animal Source Laboratory) each having a body weight ranging from 1.8 to 2.4 kg and they were divided into groups each consisting of 6 to 7 animals.
After administration of 250 U/kg of heparin (available from Takeda Chemical Industries, Ltd.) to these rabbits through the ear veins thereof, a test substance was dropped in the both eyes in an amount of about 60 μl. After 45 minutes from the dropping of the substance in the eyes, these animals were locally anesthetized with benoxil eye drop (available from Santen Pharmaceutical Co., Ltd.) and then whole of the anterior chamber fluid was collected using a 27G injection needle. This anterior chamber fluid was defined to be a primary aqueous humor. After 90 minutes from the collection of the aqueous humor, the rabbits were killed by anesthetization with an excess of pentobarbital sodium and the aqueous humor was again collected. This anterior chamber fluid was defined to be a secondary aqueous humor.
The concentration of prostaglandin E2 (hereunder referred to as “PGE2”) and the amount of proteins present in the collected secondary aqueous humor were determined and they were used as indications of inflammation. After pre-treatment of 100 μl of the aqueous humor using a Bond Elute C18 column, the concentration of PGE2 was determined using Biotrack PGE2 EIA system (available from Amersham Company). On the other hand, the amount of proteins was determined according to the Lowry method using bovine serum albumin (available from Nakarai Co., Ltd.) as a reference protein.
Etodolac as a test substance was dissolved in castor oil specified in the pharmacopoeia to concentrations of 0.5% and 5%. Meloxicam was diluted with physiological saline prior to use.

[4] = system: Japanese white male rabbits; assay: Uveitis induced by LPS in rabbits (aqueous humor PGE2 and protein); assay type: in vivo, rabbit; settings: for Inhibition Rate (PGE2 Content) / Inhibition Rate (Protein Content): LPS uveitis, vs control
Protocol: In this Test Example, groups of Japanese white male rabbits each having a body weight ranging from 1.7 to 2.4 kg were used, wherein each group consisted of 12 to 16 eyes.
The lipopolysaccharide (LPS) (055: B5 type, available from Sigma Company) derived from E. coli was administered to these rabbits through the auricular veins in a dose of 1.25 μg/kg to thus induce uveitis. After 4 hours from the administration of LPS, the rabbits were killed by anesthetization with an excess of pentobarbital sodium (available from Tokyo Chemical Industry Co., Ltd.) and the anterior chamber fluid was collected.
The PGE2 concentration and the amount of proteins present in the collected aqueous humor were determined according to the same methods used in Example 1.
In this respect, each test substance was dropped in the both eyes of these animals prior to one hour from the administration of LPS at a dose of about 60 μL/eye. […]

[5] = 24 h, exposure 24 hours, Table 4
[6] = 24 h, exposure time 24 hr, Table 5
[7] = 48 h, exposure time 48 hr, Table 5
[8] = aqueous humor 4 hours after LPS, 0.1% eye drop one hour before LPS
[9] = aqueous humor 4 hours after LPS, 0.5% eye drop one hour before LPS
[10] = aqueous humor 4 hours after LPS, 1.0% eye drop one hour before LPS

## O=C(O)Cc1ccccc1Nc1c(Cl)cccc1Cl [Diclofenac Sodium]
[1]; [5]
  EC50: 300 µM
[1]; [6]
  EC50: 630 µM
[1]; [7]
  EC50: 230 µM
[2]; [5]
  EC50: 130 µM
[2]; [6]
  EC50: 230 µM
[2]; [7]
  EC50: 220 µM

## CCc1cccc2c3c([nH]c12)C(CC)(CC(=O)O)OCC3 (stereo not shown) [Etodolac, 1,8-diethyl-1,3,4,9-tetrahydropyrano [3,4-b] indole-1-acetic acid]
[3]; aqueous humor, 0.5% and 5% in castor oil, FIG. 1
  Effect on the PGE2 content increased by the anterior chamber puncture: inhibited the increase
[3]; aqueous humor, 0.5% and 5% in castor oil, FIG. 2
  Effect on the protein content increased by the anterior chamber puncture: inhibited the increase
[1]; [5]
  EC50: 1000 µM
[2]; [5]
  EC50: 800 µM

## COc1ccc2c(c1)c(CC(=O)O)c(C)n2C(=O)c1ccc(Cl)cc1 [Indometacin]
[1]; [5]
  EC50: 570 µM
[2]; [5]
  EC50: 370 µM

## Cc1cnc(NC(=O)C2=C(O)c3ccccc3S(=O)(=O)N2C)s1 [Meloxicam, 4-hydroxy-2-methyl-N-(5-methyl-2-thiazolyl)-2H-1,2-benzo-thiazine-3-carboxamide 1,1-dioxide]
[3]; 0.1% eye drop
  Inhibition Rate (PGE2 Content): 75.0%
  Inhibition Rate (Protein Content): 29.3%
  PGE2 Content: 680.6 pg/mL
[3]; 0.5% eye drop
  Inhibition Rate (PGE2 Content): 90.7%
  Inhibition Rate (Protein Content): 52.2%
  PGE2 Content: 253.5 pg/mL
  Protein Content: 11.0 ± 1.5 mg/mL
[3]; 1.0% eye drop
  Inhibition Rate (PGE2 Content): 94.2%
  Inhibition Rate (Protein Content): 47.6%
  PGE2 Content: 158.3 pg/mL
  Protein Content: 12.0 ± 2.1 mg/mL
[3]; 0.1% eye drop, about 60 μl both eyes
  Protein Content: 16.2 ± 1.9 mg/mL
[4]; 0.1% eye drop
  Inhibition Rate (PGE2 Content): 55.9%
  Inhibition Rate (Protein Content): 33.8%
[4]; 0.5% eye drop
  Inhibition Rate (PGE2 Content): 68.8%
[4]; 1.0% eye drop
  Inhibition Rate (PGE2 Content): 63.1%
  Inhibition Rate (Protein Content): 49.4%
[4]; [8]
  PGE2 Content: 1102.8 pg/mL
  Protein Content: 16.0 ± 1.9 mg/mL
[4]; [9]
  PGE2 Content: 780.9 pg/mL
  Protein Content: 14.3 ± 2.6 mg/mL
[4]; [10]
  PGE2 Content: 922.8 pg/mL
  Protein Content: 12.2 ± 1.8 mg/mL
[1]; [6]
  EC50: > 1000 µM
[1]; [7]
  EC50: 840 µM
[2]; [6]
  EC50: 970 µM
[2]; [7]
  EC50: 380 µM

## CS(=O)(=O)Nc1ccc([N+](=O)[O-])cc1OC1CCCCC1 [NS-398, N-(2-(cyclohexyloxy)-4-nitrophenyl) methanesulfonamide]
[4]; 0.5% in castor oil
  Inhibition Rate (PGE2 Content): 65.9%
[4]; 5.0% in castor oil
  Inhibition Rate (PGE2 Content): 59.4%
[4]; aqueous humor 4 hours after LPS 1.25 μg/kg, 0.5% in castor oil, dropped one hour before LPS
  PGE2 Content: 4553 ± 118.6 pg/mL
[4]; aqueous humor 4 hours after LPS 1.25 μg/kg, 5.0% in castor oil, dropped one hour before LPS
  PGE2 Content: 542.8 ± 79.8 pg/mL
